Experimental findings from patent publication US9486506B2 (Novo Nordisk A/S, priority 2011, dated 2016) are described below.

The target in this experiment is T1, glucagon receptor (Homo sapiens, UniProt P47871).
T1 construct: expressed in transfected cells
The experiment in a line: Assay (I) Glucagon activity (cAMP biosensor, FLIPR). In kind it is cell-based.

Each structure is given as a SMILES string. Numbered stars: 1 amine (or outer) side, 2 acyl side, 3 side chain; on linkers, the order of the positions; unused ones are H or OH. Side chains are listed from the residue outwards. Peptide text beside a SMILES is read from it. * marks the point of attachment. C20 diacid = O=C(O)CCCCCCCCCCCCCCCCCCC(=O)*; C16 diacid = O=C(O)CCCCCCCCCCCCCCC(=O)*; γGlu = O=C(O)[C@H](CCC(=O)[*:2])N[*:1]; AEEA = NCCOCCOCC(=O)O

T1 sequence (P47871 26-477): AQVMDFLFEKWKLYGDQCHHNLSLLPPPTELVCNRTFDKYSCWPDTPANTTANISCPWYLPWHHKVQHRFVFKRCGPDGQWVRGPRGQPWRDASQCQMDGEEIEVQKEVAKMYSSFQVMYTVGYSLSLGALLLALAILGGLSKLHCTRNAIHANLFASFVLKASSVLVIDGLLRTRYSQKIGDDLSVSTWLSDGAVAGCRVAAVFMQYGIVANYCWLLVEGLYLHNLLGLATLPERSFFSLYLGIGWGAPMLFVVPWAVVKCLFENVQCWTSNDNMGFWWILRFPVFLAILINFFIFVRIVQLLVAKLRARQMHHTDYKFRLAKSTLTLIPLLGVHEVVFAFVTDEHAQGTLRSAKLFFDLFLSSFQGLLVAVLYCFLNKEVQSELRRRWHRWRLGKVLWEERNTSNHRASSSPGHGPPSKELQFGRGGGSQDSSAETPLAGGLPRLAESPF

For `CC(C)C[C@H](NC(=O)[C@H](CC(=O)O)NC(=O)[C@H](CC(C)C)NC(=O)[C@H](Cc1ccc(O)cc1)NC(=O)[C@H](CCCNC(=N)N)NC(=O)[C@H](CO)NC(=O)[C@H](Cc1ccc(O)cc1)NC(=O)[C@H](CC(=O)O)NC(=O)[C@H](CO)NC(=O)[C@@H](NC(=O)[C@H](Cc1ccccc1)NC(=O)[C@@H](NC(=O)CNC(=O)[C@H](CCC(N)=O)NC(=O)[C@H](CO)NC(=O)[C@@H](N)Cc1c[nH]cn1)[C@@H](C)O)[C@@H](C)O)C(=O)N[C@@H](CCCNC(=N)N)C(=O)N[C@@H](CCCNC(=N)N)C(=O)N[C@@H](C)C(=O)N[C@@H](CCC(N)=O)C(=O)N[C@@H](CC(=O)O)C(=O)N[C@@H](Cc1ccccc1)C(=O)N[C@H](C(=O)N[C@@H](CCCCNC(=O)CC[C@H](NC(=O)CC[C@H](NC(=O)COCCOCCNC(=O)COCCOCCNC(=O)CC[C@H](NC(=O)CCCCCCCCCCCCCCCCCCC(=O)O)C(=O)O)C(=O)O)C(=O)O)C(=O)N[C@@H](Cc1c[nH]c2ccccc12)C(=O)N[C@@H](CC(C)C)C(=O)N[C@@H](CC(C)C)C(=O)N[C@@H](CO)C(=O)N[C@H](C(=O)O)[C@@H](C)O)C(C)C` [Example 26, N^ε24-[(4S)-4-carboxy-4-[[(4S)-4-carboxy-4-[[2-[2-[2-[[2-[2-[2-[[(4S)-4-carboxy-4-(19-carboxynonadecanoylamino)butanoyl]amino]ethoxy]ethoxy]acetyl]amino]ethoxy]ethoxy]acetyl]amino]butanoyl]amino]butanoyl]-[Arg^12,Leu^16,Lys^24,Leu^27,Ser^28]-Glucagon] (H-HSQGTFTSDYSRYLDLRRAQDFVK([γGlu-γGlu-AEEA-AEEA-γGlu-C20 diacid])WLLST-OH), the EC50 (as a rule, the concentration at which the effect is half-maximal) was determined as 1.07 nM.
The value for `CC(C)C[C@H](NC(=O)[C@H](Cc1ccc(O)cc1)NC(=O)[C@H](CCCNC(=N)N)NC(=O)[C@H](CO)NC(=O)[C@H](Cc1ccc(O)cc1)NC(=O)[C@H](CC(=O)O)NC(=O)[C@H](CO)NC(=O)[C@@H](NC(=O)[C@H](Cc1ccccc1)NC(=O)[C@@H](NC(=O)CNC(=O)[C@H](CCC(N)=O)NC(=O)[C@H](CO)NC(=O)[C@@H](N)Cc1c[nH]cn1)[C@@H](C)O)[C@@H](C)O)C(=O)N[C@@H](CCC(=O)O)C(=O)N[C@@H](CO)C(=O)N[C@@H](CCCNC(=N)N)C(=O)N[C@@H](CCCNC(=N)N)C(=O)N[C@@H](C)C(=O)N[C@@H](CCC(N)=O)C(=O)N[C@@H](CCC(=O)O)C(=O)N[C@@H](Cc1ccccc1)C(=O)N[C@H](C(=O)N[C@@H](CCCCNC(=O)CC[C@H](NC(=O)CC[C@H](NC(=O)COCCOCCNC(=O)COCCOCCNC(=O)CC[C@H](NC(=O)CCCCCCCCCCCCCCC(=O)O)C(=O)O)C(=O)O)C(=O)O)C(=O)N[C@@H](Cc1c[nH]c2ccccc12)C(=O)N[C@@H](CC(C)C)C(=O)N[C@@H](CC(C)C)C(=O)N[C@@H](CO)C(=O)N[C@H](C(=O)O)[C@@H](C)O)C(C)C` [Example 71, N^ε24-[(4S)-4-carboxy-4-[[(4S)-4-carboxy-4-[[2-[2-[2-[[2-[2-[2-[[(4S)-4-carboxy-4-(15-carboxypentadecanoylamino)butanoyl]amino]ethoxy]ethoxy]acetyl]amino]ethoxy]ethoxy]acetyl]amino]butanoyl]amino]butanoyl]-[Arg12,Glu15,Glu21,Lys24,Leu27,Ser28]-Glucagon] (H-HSQGTFTSDYSRYLESRRAQEFVK([γGlu-γGlu-AEEA-AEEA-γGlu-C16 diacid])WLLST-OH) was 0.072 nM; that for `CC(C)C[C@H](NC(=O)[C@H](Cc1ccc(O)cc1)NC(=O)[C@H](CCCCN)NC(=O)[C@H](CO)NC(=O)[C@H](Cc1ccc(O)cc1)NC(=O)[C@H](CC(=O)O)NC(=O)[C@H](CO)NC(=O)[C@@H](NC(=O)[C@H](Cc1ccccc1)NC(=O)[C@@H](NC(=O)CNC(=O)[C@H](CCC(N)=O)NC(=O)[C@H](CO)NC(=O)[C@@H](N)Cc1c[nH]cn1)[C@@H](C)O)[C@@H](C)O)C(=O)N[C@@H](CCC(=O)O)C(=O)N[C@@H](CO)C(=O)N[C@@H](CCCNC(=N)N)C(=O)N[C@@H](CCCNC(=N)N)C(=O)N[C@@H](C)C(=O)N[C@@H](CCC(N)=O)C(=O)N[C@@H](CC(=O)O)C(=O)N[C@@H](Cc1ccccc1)C(=O)N[C@H](C(=O)N[C@@H](CCCCNC(=O)CC[C@H](NC(=O)COCCOCCNC(=O)COCCOCCNC(=O)CC[C@H](NC(=O)CCCCCCCCCCCCCCCCC(=O)O)C(=O)O)C(=O)O)C(=O)N[C@@H](Cc1c[nH]c2ccccc12)C(=O)N[C@@H](CC(C)C)C(=O)N[C@@H](CC(C)C)C(=O)N[C@@H](CC(N)=O)C(=O)N[C@H](C(=O)O)C(C)C)C(C)C` [Example 33, N^ε24-[(4S)-4-carboxy-4-[[2-[2-[2-[[2-[2-[2-[[(4S)-4-carboxy-4-(17-carboxyheptadecanoylamino)butanoyl]amino]ethoxy]ethoxy]acetyl]amino]ethoxy]ethoxy]acetyl]amino]butanoyl]-[Glu15,Lys24,Leu27,Val29]-Glucagon] was 0.92 nM.
As to `CC(C)C[C@H](NC(=O)[C@H](Cc1c[nH]c2ccccc12)NC(=O)[C@H](CCCCNC(=O)CC[C@H](NC(=O)CC[C@H](NC(=O)COCCOCCNC(=O)COCCOCCNC(=O)CC[C@H](NC(=O)CCCCCCCCCCCCCCC(=O)O)C(=O)O)C(=O)O)C(=O)O)NC(=O)[C@@H](NC(=O)[C@H](Cc1ccccc1)NC(=O)[C@H](CC(=O)O)NC(=O)[C@H](CCC(N)=O)NC(=O)[C@H](C)NC(=O)[C@H](CCCNC(=N)N)NC(=O)[C@H](CCCNC(=N)N)NC(=O)[C@@H](NC(=O)[C@H](CC(=O)O)NC(=O)[C@H](CC(C)C)NC(=O)[C@H](Cc1ccc(O)cc1)NC(=O)[C@H](CCCCN)NC(=O)[C@H](CO)NC(=O)[C@H](Cc1ccc(O)cc1)NC(=O)[C@H](CC(=O)O)NC(=O)[C@H](CO)NC(=O)[C@@H](NC(=O)[C@H](Cc1ccccc1)NC(=O)[C@@H](NC(=O)CNC(=O)[C@H](CCC(N)=O)NC(=O)[C@H](CO)NC(=O)[C@@H](N)Cc1c[nH]cn1)[C@@H](C)O)[C@@H](C)O)[C@@H](C)O)C(C)C)C(=O)N[C@@H](CC(C)C)C(=O)N[C@@H](CO)C(=O)N[C@H](C(=O)O)[C@@H](C)O` [Example 81, N^ε24-[(4S)-4-carboxy-4-[[(4S)-4-carboxy-4-[[2-[2-[2-[[2-[2-[2-[[(4S)-4-carboxy-4-(15-carboxypentadecanoylamino)butanoyl]amino]ethoxy]ethoxy]acetyl]amino]ethoxy]ethoxy]acetyl]amino]butanoyl]amino]butanoyl]-[Thr16,Lys24,Leu27,Ser28]-Glucagon], the response was half-maximal at 0.017 nM (EC50).
